Measurements as given in patent US20130005747A1, “METHOD FOR SELECTING A CANCER THERAPY” (Cyclacel Limited, priority 2010, published 2013).

What was measured:
Experiment in all cases: Fractional growth, 72 h seliciclib
Assay type in all cases: cell-based, human
A-204 = A-204 (Muscle), 15 μM seliciclib
Description: (§1) A total of 270 human cancer cell lines from diverse cancer histopathologic types were investigated.

A-375 = A-375 (Skin), 15 μM seliciclib
Description: as §1

BT-549 = BT-549 (Breast), 15 μM seliciclib
Description: as §1

BxPC-3 = BxPC-3 (Pancreas), 15 μM seliciclib
Description: as §1

CAL-29 = CAL-29 (Bladder), 15 μM seliciclib
Description: as §1

COLO 205 = COLO 205 (Intestine), 15 μM seliciclib
Description: as §1

COR-L23 = COR-L23 (Lung: NSCLC), 15 μM seliciclib
Description: as §1

Caki-1 = Caki-1 (Kidney), 15 μM seliciclib
Description: as §1

DBTRG-05MG = DBTRG-05MG (Brain), 15 μM seliciclib
Description: as §1

HCC-366 = HCC-366 (Lung: NSCLC), 15 μM seliciclib
Description: as §1

HLE = HLE (Liver), 15 μM seliciclib
Description: as §1

HPAC = HPAC (Pancreas), 15 μM seliciclib
Description: as §1

HSC-2 = HSC-2 (Head & Neck), 15 μM seliciclib
Description: as §1

HT115 = HT115 (Intestine), 15 μM seliciclib
Description: as §1

IGR-1 = IGR-1 (Skin), 15 μM seliciclib
Description: as §1

JHU-019 = JHU-019 (Head & Neck), 15 μM seliciclib
Description: as §1

LNZTA3WT4 = LNZTA3WT4 (Brain), 15 μM seliciclib
Description: as §1

LU99B = LU99B (Lung: NSCLC), 15 μM seliciclib
Description: as §1

MCF7 = MCF7 (Breast), 15 μM seliciclib
Description: as §1

MES-SA = MES-SA (Uterus), 15 μM seliciclib
Description: as §1

MFM-223 = MFM-223 (Breast), 15 μM seliciclib
Description: as §1

MKN1 = MKN1 (Stomach), 15 μM seliciclib
Description: as §1

NCI-H1792 = NCI-H1792 (Lung: NSCLC), 15 μM seliciclib
Description: as §1

NCI-H1793 = NCI-H1793 (Lung: NSCLC), 15 μM seliciclib
Description: as §1

NCI-H2023 = NCI-H2023 (Lung: NSCLC), 15 μM seliciclib
Description: as §1

NCI-H2170 = NCI-H2170 (Lung: NSCLC), 15 μM seliciclib
Description: as §1

NCI-H2347 = NCI-H2347 (Lung: NSCLC), 15 μM seliciclib
Description: as §1

OE21 = OE21 (Esophagus), 15 μM seliciclib
Description: as §1

PCI-15A = PCI-15A (Head & Neck), 15 μM seliciclib
Description: as §1

PCI-15 = PCI-15 (Head & Neck), 15 μM seliciclib
Description: as §1

PL4 = PL4 (Pancreas), 15 μM seliciclib
Description: as §1

RCM-1 = RCM-1 (Intestine), 15 μM seliciclib
Description: as §1

RERF-GC-1B = RERF-GC-1B (Stomach), 15 μM seliciclib
Description: as §1

RPMI 2650 = RPMI 2650 (Head & Neck), 15 μM seliciclib
Description: as §1

RVH-421 = RVH-421 (Skin), 15 μM seliciclib
Description: as §1

SW756 = SW756 (Cervix), 15 μM seliciclib
Description: as §1

T47D = T47D (Breast), 15 μM seliciclib
Description: as §1

Compound: CC[C@H](CO)Nc1nc(NCc2ccccc2)c2ncn(C(C)C)c2n1 [seliciclib, roscovitine]
- Fractional Growth (A-204): 0.2653
- Fractional Growth (A-375): 0.1771
- Fractional Growth (BT-549): 0.758
- Fractional Growth (BxPC-3): 0.671
- Fractional Growth (CAL-29): 0.5744
- Fractional Growth (COLO 205): 0.4437
- Fractional Growth (COR-L23): 0.2341
- Fractional Growth (Caki-1): 0.3885
- Fractional Growth (DBTRG-05MG): 0.7139
- Fractional Growth (HCC-366): 0.2561
- Fractional Growth (HLE): 0.1553
- Fractional Growth (HPAC): 0.7062
- Fractional Growth (HSC-2): 0.5464
- Fractional Growth (HT115): 0.4837
- Fractional Growth (IGR-1): 0.5764
- Fractional Growth (JHU-019): 0.4229
- Fractional Growth (LNZTA3WT4): 0.6936
- Fractional Growth (LU99B): 0.2318
- Fractional Growth (MCF7): 0.4137
- Fractional Growth (MES-SA): 0.3922
- Fractional Growth (MFM-223): 0.5683
- Fractional Growth (MKN1): 0.3594
- Fractional Growth (NCI-H1792): 0.4649
- Fractional Growth (NCI-H1793): 0.6274
- Fractional Growth (NCI-H2023): 0.4148
- Fractional Growth (NCI-H2170): 0.4534
- Fractional Growth (NCI-H2347): 0.3299
- Fractional Growth (OE21): 0.4083
- Fractional Growth (PCI-15A): 0.4965
- Fractional Growth (PCI-15): 0.2641
- Fractional Growth (PL4): 0.057
- Fractional Growth (RCM-1): 0.6689
- Fractional Growth (RERF-GC-1B): 0.6411
- Fractional Growth (RPMI 2650): 0.1937
- Fractional Growth (RVH-421): 0.4165
- Fractional Growth (SW756): 0.6484
- Fractional Growth (T47D): 0.6314
